Experimental data: US11337971B2, “Dopamine D3 receptor selective antagonists/partial agonists and uses thereof” (THE UNITED STATES OF AMERICA, AS REPRESENTED BY THE …, priority 2018, dated 2022)
Values joined by “and” are separate entries in the source; they are usually repeats but may differ in a detail not shown here. Equal values may be shown once. “Also recorded” adds a separate entry of the source. Read-outs that look alike come from different tables or passages of the source.

What was measured:
Male Long-Evans rats [1] = assay: Oxycodone-triggered reinstatement of drug-seeking behavior; type: in vivo, rat; conditions: 5-15 mg/kg, i.p., oxycodone priming 1 mg/kg
Procedure: For the three groups from Experiment 2, extinction sessions continued without drug treatment until the rats' average active lever-presses/session decreased to less than 10 responses over 3 consecutive sessions. On the following day, 2 groups of rats were first pretreated with 1 of 2 doses of compound (±)-29 (5 or 15 mg/kg) while another group with vehicle. Fifteen min following pretreatment, all the animals received a non-contingent injection of oxycodone priming (1 mg/kg, i.p.) and then were placed into the same operant chambers for another extinction session.

Male Long-Evans rats [2] = assay: Naloxone-precipitated conditioned place aversion (CPA) in chronic oxycodone-treated rats; type: in vivo, rat; conditions: 5 or 15 mg/kg, i.p., 1 h before naloxone conditioning
Procedure: Naloxone-precipitated CPA was tested in a place-conditioning apparatus (Med Associates, St Albans, Vt.) consisting of two side compartments (21 cm×28 cm) and a central gray connecting area (21 cm×12.5 cm); a sliding door separated each compartment from the connecting area. The two side compartments differed in wall color (black vs white), floor type (stainless steel net vs stainless steel grid), and illumination. Before the experiment started, all the animals were allowed to explore the conditioning apparatus for 15 min (preconditioning).
Six groups (n=8/group) of rats were involved in this test, 3 groups were chronically treated with oxycodone (3 mg/kg, i.p.) and the other 3 with saline (1 ml/kg), twice daily (800 and 1800 h). Four hours following the morning injection on Day 4 and 6, the oxycodone treated rats were challenged with saline and immediately confined in one side compartment of the conditioning box for 30 min, while on Day 5 and 7, they were first pretreated with either vehicle or 1 of 2 doses of compound (±)-29 (5 and 15 mg/kg, i.p.) 3 h after morning oxycodone injection, and 1 h later, challenged with naloxone (1 mg/kg, i.p.). […] The time that animals spent in each compartment was recorded. The CPA score was calculated as the time difference (seconds) that animal spent in drug-paired versus saline-paired compartment.

human D3R = human D3R (Homo sapiens (Human), UniProt P35462); assay: Radioligand competition binding, [3H]N-methylspiperone, HEK293 membranes expressing human D3R; conditions: read-out: D3R Ki ± SEM
How it was run: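 HEK293 membranes (10 μg protein) incubated 1 h at room temperature in EBSS with 0.2 mM sodium metabisulfite, 0.4 nM [3H]N-methylspiperone and compound (10 μM to 10 pM, triplicate). Nonspecific binding defined with 10 μM butaclamol; GF/B filtration.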

Male Long-Evans rats [3] = assay: Maintenance of oxycodone self-administration and oxycodone-seeking after oxycodone was replaced by saline; type: in vivo, rat; conditions: i.p.
Procedure: Four groups of rats (n=7/group) were first trained to self-administer oxycodone at a dose of 100 μg/kg/infusion for 2 weeks followed by 50 μg/kg/infusion for the rest of the training sessions and for the test session. The daily self-administration of oxycodone at the low dose continued until the average oxycodone infusions/session varied less than 10% over 3 consecutive sessions (normally 6-10 sessions were required to meet this criterion of stability). On the following test day, the groups of rats were first systemically injected with either vehicle or a dose of compound (±)-29 (5, 15 or 25 mg/kg, i.p.), and 15 min later, the animals were allowed to self-administer oxycodone.
Following completion of the self-administration testing, the rats continued to self-administer oxycodone (50 μg/kg/infusion) for additional 4 sessions. On the next day, the animals were re-assigned into 3 groups, and pretreated with either vehicle or 1 of the 2 doses of compound (±)-29 (5 or 15 mg/kg). Fifteen min later, the animals were placed in the chambers, and allowed to lever-press for an extinction session during which saline was substituted for […]. Other conditions remain the same as […] session.

[4] = Phase I metabolic stability in rat liver microsomes; type: in vitro ADME; conditions: Rat liver microsomes
Excerpt: Rat Liver Microsome Metabolic Stability: Test compounds including 3-F analogues (C4a, C4b, C5a, C5b) and 29, 19 as well as the R-, S-enantiomers of C4a, C5a, 29 and 19 were screened for phase I metabolic stability in rat liver microsomes.

Sequence of human D3R (P35462 whole entry): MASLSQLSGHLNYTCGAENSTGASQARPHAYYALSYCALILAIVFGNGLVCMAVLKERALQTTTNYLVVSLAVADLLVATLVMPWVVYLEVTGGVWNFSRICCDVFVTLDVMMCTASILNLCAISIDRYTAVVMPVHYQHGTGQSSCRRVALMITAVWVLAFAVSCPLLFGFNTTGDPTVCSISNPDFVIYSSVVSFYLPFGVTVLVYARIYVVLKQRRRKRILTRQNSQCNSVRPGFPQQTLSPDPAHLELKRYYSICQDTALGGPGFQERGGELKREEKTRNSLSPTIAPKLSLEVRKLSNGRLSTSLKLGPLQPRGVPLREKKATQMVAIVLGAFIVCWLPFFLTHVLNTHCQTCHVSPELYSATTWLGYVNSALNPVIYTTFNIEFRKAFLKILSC

SMILES: CCc1cc(Cl)c(OC)c(N2CCN(CC(O)CCNC(=O)c3cc4ccccc4[nH]3)CC2)c1 (racemic) [Compound 29, N-(4-(4-(3-chloro-5-ethyl-2-methoxyphenyl)piperazin-1-yl)-3-hydroxybutyl)-1H-indole-2-carboxamide]
- oxycodone-primed reinstatement of active lever-presses (Male Long-Evans rats [1]): dose-dependently blocked; also recorded: dose dependently reduced reinstatement to oxycodone seeking
- naloxone-precipitated CPA in chronically oxycodone-treated rats (Male Long-Evans rats [2]): dose-dependently attenuated the CPA induced by naloxone; also recorded: significantly blocked CPA induced by naloxone-precipitated withdrawal; also recorded: inhibition of naloxone-precipitated conditioned place aversion
- Ki (human D3R; Table 1B, [3H]-N-methylspiperone competition, 96-well plates): 7 nM and 6.84 nM
- Ki (human D3R; Table 1C): 7.61 ± 1.17 nM
- oxycodone infusions during maintenance of self-administration (Male Long-Evans rats [3]; 5-25 mg/kg): dose-dependently decreased oxycodone infusions; also recorded: dose-dependently reduced oxycodone self-administration
- oxycodone-seeking behavior (extinction responding) when saline was substituted for oxycodone (Male Long-Evans rats [3]; 5 or 15 mg/kg): dose-dependently inhibited oxycodone-seeking behavior; also recorded: dose-dependently reduced
- % at 0 min. ([4]; 0 min): 100%
- % at 30 min. ([4]; 30 min): 95%
- % at 60 min. ([4]; 60 min): 85%
